Measured values taken from US8912144B2, “Method for treating stroke via administration of NEP1-40 and inosine” (Children's Medical Center Corporation, priority 2003, dated 2014).

System: corticospinal neurons (CSNs/CSMNs)
Assay: Laser-capture microdissection and Illumina microarray gene expression in corticospinal neurons contralateral to stroke
Type: in vivo, rat
Description: In a separate group of animals (n=20), layer V pyramidal cells of the sensorimotor cortex were retrogradely labeled by injecting Alexa-Fluor-488-conjugated cholera toxin B subunit (CTB; 300 U/μl in sterile saline) into the cervical spinal cord. For this, animals were anesthetized with a combination of ketamine and Domitor (medetomidine) and a laminectomy was performed at the cervical level of the spinal cord (C2-C4). CTB was stereotaxically delivered into four sites lateral to the corticospinal tract. Injections (1.3 μl) were spaced 1 mm apart on the rostro-caudal axis, and were made 0.5 mm to the left and right of the midline. After allowing two weeks for transport of the tracer, we performed either sham surgery with no treatment (n=6) or stroke surgery combined with saline (n=3) or inosine (n=4) treatment as described above. Seven days later, animals were decapitated under transient gas anesthesia, brains were removed and rinsed in cold RPMI medium, and a tissue block containing the sensorimotor cortex was dissected and placed in OCT Tissue Tek Medium (Sakura Finetek USA Inc., CA) on dry ice within five minutes of death. Ten μm sections were cut onto precleaned Gold Seal RITE-ON glass slides (Gold Seal Prod-ucts, Portsmouth, N.H.), placed on dry ice, and rapidly stored at −80° C.
Slide-mounted sections were thawed and dehydrated in RNAse-free ethanol gradients and xylene. Retro-gradely labeled, fluorescent cortical pyramidal cells in the undamaged hemisphere were individually captured using the Arcturus VERITAS system. ≧500 cells were collected from each animal and stored in Arcturus extraction buffer at −80° C. Total RNA was extracted from cells using the Micro-to-Midi TotalRNA Purification System (Invitrogen, Carlsbad Calif.) and double-amplified using the TargetAmp 2-Round Aminoallyl-aRNA Amplification kit 1.0 (Epicentre, Madison, Wis.). Amplified RNA was checked for average fragment length using the Agilent RNA 6000 Nano LabChip kit (Agilent Technologies, Santa Clara, Calif.) and then biotinylated and hybridized (1 μg) on Illumina RatRef-12 Expression BeadChip arrays (Illumina, San Diego Calif.), querying the expression of >22,000 RefSeq-curated rat transcripts. Results were obtained from a total of 15 samples representing 6 untreated controls, 4 animals with stroke treated with saline and 5 animals with stroke treated with inosine. Slides were processed and scanned with Illumina BeadStation platform according to the manufacturer protocol.
Raw data was analyzed using Bioconductor packages (www.bioconductor.org, (Gentleman et al., 2004)). Low level quality-control analysis was performed using inter-array Pearson correlation and clustering based on variance. Two arrays (1 saline and 1 inosine-treated) were outliers and were excluded from the analysis. Data was normalized using quantile normalization, and analysis of differential expression was performed using a linear model fitting (LIMMA package, (Smyth, 2005). Differentially expressed genes were classified according to gene ontology using Bioconductor packages and online tools (DAVID, http://david.abcc.ncifcrf.gov/). Pathway analysis was carried out using Ingenuity Pathway Analysis (Ingenuity Systems, www.ingenuity.com).

OC[C@H]1O[C@@H](n2cnc3c(O)ncnc32)[C@H](O)[C@@H]1O [inosine]
Signal Intensity, Spnb4 (ILMN_66300, inosine after stroke): 1147
Fold-Induction Stroke, ino vs. cntrl, Bbp (ILMN_66323): 0.58
Signal Intensity, Bbp (ILMN_66323, inosine after stroke): 1150
Fold-Induction Stroke, ino vs. cntrl, LOC305122 (ILMN_66350): 0.58
Signal Intensity, LOC305122 (ILMN_66350, inosine after stroke): 771
Fold-Induction Stroke, ino vs. cntrl, Plekhb1 (ILMN_66651): 0.62
Signal Intensity, Plekhb1 (ILMN_66651, inosine after stroke): 1687
Fold-Induction Stroke, ino vs. cntrl, Ppp1r11 (ILMN_66809): 0.90
Signal Intensity, Ppp1r11 (ILMN_66809, inosine after stroke): 865
Fold-Induction Stroke, ino vs. cntrl, LOC501538 (ILMN_66820): 0.64
Signal Intensity, LOC501538 (ILMN_66820, inosine after stroke): 1132
Fold-Induction Stroke, ino vs. cntrl, Slc25a11 (ILMN_66823): 0.65
Signal Intensity, Slc25a11 (ILMN_66823, inosine after stroke): 263
Fold-Induction Stroke, ino vs. cntrl, Optn (ILMN_67016): 0.69
Signal Intensity, Optn (ILMN_67016, inosine after stroke): 360
Fold-Induction Stroke, ino vs. cntrl, Lxn (ILMN_67020): 0.72
Signal Intensity, Lxn (ILMN_67020, inosine after stroke): 433
Fold-Induction Stroke, ino vs. cntrl, Psmc5 (ILMN_67036): 0.54
Signal Intensity, Psmc5 (ILMN_67036, inosine after stroke): 1620
Fold-Induction Stroke, ino vs. cntrl, MGC72992 (ILMN_67222): 0.63
Signal Intensity, MGC72992 (ILMN_67222, inosine after stroke): 359
Fold-Induction Stroke, ino vs. cntrl, Ywhaq (ILMN_67273): 0.66
Signal Intensity, Ywhaq (ILMN_67273, inosine after stroke): 2844
Fold-Induction Stroke, ino vs. cntrl, LOC498696 (ILMN_67275): 0.51
Signal Intensity, LOC498696 (ILMN_67275, inosine after stroke): 514
Fold-induction CSMNs: Cd63 (ILMN_67382, over and above inosine's effect of decreasing stroke-induced changes): 2.10 fold
Fold-Induction Stroke, ino vs. cntrl, Ggcx (ILMN_67463): 0.93
Signal Intensity, Ggcx (ILMN_67463, inosine after stroke): 526
Fold-Induction Stroke, ino vs. cntrl, Kif3b (ILMN_67572): 0.79
Signal Intensity, Kif3b (ILMN_67572, inosine after stroke): 642
Fold-Induction Stroke, ino vs. cntrl, Zfp422 (ILMN_67578): 0.99
Signal Intensity, Zfp422 (ILMN_67578, inosine after stroke): 557
Fold-induction CSMNs: Ms4a6b (ILMN_67686, over and above inosine's effect of decreasing stroke-induced changes): 2.03 fold
Fold-Induction Stroke, ino vs. cntrl, Dcamkl1 (ILMN_67724): 0.59
Signal Intensity, Dcamkl1 (ILMN_67724, inosine after stroke): 4398
Fold-Induction Stroke, ino vs. cntrl, LOC501601 (ILMN_67885): 0.54
Signal Intensity, LOC501601 (ILMN_67885, inosine after stroke): 791
Fold-Induction Stroke, ino vs. cntrl, Ca2 (ILMN_67903): 0.47
Signal Intensity, Ca2 (ILMN_67903, inosine after stroke): 1008
Fold-Induction Stroke, ino vs. cntrl, LOC287622 (ILMN_67961): 0.69
Signal Intensity, LOC287622 (ILMN_67961, inosine after stroke): 400
Fold-induction CSMNs: Gfap (ILMN_68224, over and above inosine's effect of decreasing stroke-induced changes): 2.46 fold
Fold-Induction Stroke, ino vs. cntrl, Lkap (ILMN_68337): 0.64
Signal Intensity, Lkap (ILMN_68337, inosine after stroke): 758
Fold-Induction Stroke, ino vs. cntrl, Gsn (ILMN_68511): 0.64
Signal Intensity, Gsn (ILMN_68511, inosine after stroke): 2157
Fold-Induction Stroke, ino vs. cntrl, Flot2 (ILMN_68584): 0.70
Signal Intensity, Flot2 (ILMN_68584, inosine after stroke): 667
Fold-Induction Stroke, ino vs. cntrl, Rab40b (ILMN_68736): 0.63
Signal Intensity, Rab40b (ILMN_68736, inosine after stroke): 476
Fold-Induction Stroke, ino vs. cntrl, Dhcr24 (ILMN_68892): 0.53
Signal Intensity, Dhcr24 (ILMN_68892, inosine after stroke): 1032
Fold-Induction Stroke, ino vs. cntrl, Sfxn3 (ILMN_68903): 0.57
Signal Intensity, Sfxn3 (ILMN_68903, inosine after stroke): 261
Fold-Induction Stroke, ino vs. cntrl, Tde2 (ILMN_68952): 0.53
Signal Intensity, Tde2 (ILMN_68952, inosine after stroke): 545
Fold-Induction Stroke, ino vs. cntrl, RGD1309158 (ILMN_69031): 0.52
Signal Intensity, RGD1309158 (ILMN_69031, inosine after stroke): 630
Fold-Induction Stroke, ino vs. cntrl, LOC289036 (ILMN_69224): 0.72
Signal Intensity, LOC289036 (ILMN_69224, inosine after stroke): 1532
Fold-induction CSMNs: Arpc1b (ILMN_69642, over and above inosine's effect of decreasing stroke-induced changes): 2.31 fold
Fold-Induction Stroke, ino vs. cntrl, Ubl3 (ILMN_69708): 0.83
Signal Intensity, Ubl3 (ILMN_69708, inosine after stroke): 479
Fold-Induction, complement cascade gene Bf (B-factor, properdin) (ILMN_69719, LCM-captured CSMNs contralateral a stroke): 2.73 fold
Fold-Induction Stroke, ino vs. cntrl, LOC296126 (ILMN_69931): 0.64
Signal Intensity, LOC296126 (ILMN_69931, inosine after stroke): 332
Fold-Induction Stroke, ino vs. cntrl, LOC315463 (ILMN_69949): 0.54
Signal Intensity, LOC315463 (ILMN_69949, inosine after stroke): 709
Fold-Induction Stroke, ino vs. cntrl, Zfp216 (ILMN_70270): 0.66
Signal Intensity, Zfp216 (ILMN_70270, inosine after stroke): 888
Fold-induction CSMNs: A2m (ILMN_70335, over and above inosine's effect of decreasing stroke-induced changes): 4.10 fold
Fold-Induction Stroke, ino vs. cntrl, LOC366188 (ILMN_70369): 0.85
Signal Intensity, LOC366188 (ILMN_70369, inosine after stroke): 1100
